Results as given in US20260232662A1, “MIR-124 INDUCER, AND PREPARATION METHOD THEREFOR AND USE THEREOF” (NANJING SYNNOCARE PHARMACEUTICAL TECHNOLOGY CO., LTD., priority 2023, published 2026).

These compounds were tested on miR-124 (assay: Induction of miR-124 expression in PBMC cells (qPCR)). Conditions: Homo sapiens, 72 h, 0.1 μM compound, human PBMCs stimulated with PMA/ionomycin, miR-191 reference gene, read-out: miR-124 expression, Fold change vs DMSO.
Assay type: cell-based
Protocol: This study evaluated the ability of the compound of the present invention to influence miR-124 transcriptional activity in vitro. The experiment analyzed miR-124 expression in human PBMCs (Sailybio) using quantitative PCR (qPCR).
Thawed human PBMCs (1 mL) were added to 19 mL of culture medium (RPMI1640+10% hFBS+1‰ 2-mercaptoethanol) and the PBMCs were incubated in a cell culture incubator for 30 minutes. The PBMCs were collected and the cells (3.0*10^6 cells/well/3 mL) were resuspended in medium containing PMA (10 ng/mL; Invivogen) and ionomycin (200 ng/mL; Invivogen). The cells were incubated in a 6-well plate for 48 hours. Diluted compound was added to the cells to achieve a final concentration of 0.1 μM. After 72 hours, the samples were centrifuged and the cells were collected.
Total miRNA was extracted from the cells using the MiPure Cell/Tissue miRNA Kit (Vazyme) according to the manufacturer's instructions, followed by purification. The purified samples were treated with genomic DNA elimination buffer, and reverse transcription was performed using a GeneAmp PCR System. The resulting cDNA was subjected to quantitative real-time PCR (qPCR) analysis on a QuantStudio™ 7 Flex Real-Time PCR System. Data analysis was performed using the QuantStudio 7 software with default settings to automatically determine Ct values, and the results were exported. In this assay, miR-191 was used as the reference gene, and the DMSO-treated group served as the control. The relative expression of miR-124 was calculated using the following formula: […]
In the case of `FC(F)(F)c1ccc(Nc2nc3cc(Cl)ccc3n3ccnc23)cc1` [Compound B109, 7-chloro-N-(4-(trifluoromethyl)phenyl) imidazolo[1,2-a] quinoxalin-4-amine], the fold induction at 0.1 µM is reported as 26.4. With `FC(F)(F)c1ccc(Nc2nc3c(Cl)cccc3n3ccnc23)nc1` [Compound 34] the fold induction at 0.1 µM was 14.7. Compound `FC(F)(F)Oc1ccc(NC2=Nc3ccc(Cl)cc3N3CCN=C23)cc1` [Compound B142, 8-chloro-N-(4-(trifluoromethoxy)phenyl)-1,2-dihydroimidazo[1,2-a] quinoxalin-4-amine] has a fold induction at 0.1 µM of 25.6. Compound `FC1(F)Oc2ccc(Nc3nc4ccc(Cl)cc4n4ccnc34)cc2O1` [Compound B100, 8-chloro-N-(2,2-difluorobenzo [d][1,3]dihydroxy-5-yl) imidazolo[1,2-a] quinoxalin-4-amine] has a fold induction at 0.1 µM of 19.6. For `Fc1cccc2c1nc(Nc1ccc(C(F)(F)F)c(Cl)c1)c1nccn12` [Compound 47], the fold induction at 0.1 µM was 9.86. With `FC(F)(F)Oc1ccc(Nc2nc3ccc(Br)c(Cl)c3n3ccnc23)cc1` [Compound B18, 8-bromo-9-chloro-N-(4-(trifluoromethoxy)phenyl)imidazolo [1,2-a]quinoxalin-4-amine] the fold induction at 0.1 µM was 22.6. In the case of `FC(F)(F)Oc1ccc(Nc2nc3cc(Cl)c(Cl)cc3n3ccnc23)cc1` [Compound B24, 7,8-dichloro-N-(4-(trifluoromethoxy)phenyl)imidazolo [1,2-a]quinoxalin-4-amine], the fold induction at 0.1 µM is reported as 26.7. With `Fc1cc(NC2=Nc3c(F)cc(Cl)cc3N3CCN=C23)ccc1C(F)(F)F` [Compound 96] the fold induction at 0.1 µM was 17.7. `FC(F)(F)c1ccc(Nc2nc3c(Cl)cc(Cl)cc3n3ccnc23)cc1` [Compound 62] was tested, and the fold induction at 0.1 µM was 15.5. `FC(F)(F)c1ccc(Nc2nc3c(Cl)cccc3n3ccnc23)cc1` [Compound 16] was tested, and the fold induction at 0.1 µM was 13.4. Work on `FC1(F)Oc2ccc(Nc3nc4cc(Cl)ccc4n4ccnc34)cc2O1` [Compound B106, 7-chloro-N-(2,2-difluorobenzo[d] [1,3]dihydroxy-5-yl) imidazolo[1,2-a] quinoxalin-4-amine] yielded a fold induction at 0.1 µM of 16.3. For `FC(F)Oc1ccc(Nc2nc3cccc(Cl)c3n3ccnc23)cc1` [Compound B59, 9-chloro-N-(4-(difluoromethoxy)phenyl)imidazolo [1,2-a]quinoxalin-4-amine], the fold induction at 0.1 µM was 25.4. With `Fc1cc(Nc2nc3c(Cl)cc(Cl)cc3n3ccnc23)ccc1C(F)(F)F` [Compound 63] the fold induction at 0.1 µM was 18.4. `Fc1cc(NC2=Nc3cc(Cl)cc(Cl)c3N3CCN=C23)ccc1C(F)(F)F` [Compound B140, 7,9-dichloro-N-(3-fluoro-4-(trifluoromethyl)phenyl)-1,2-dihydroimidazo[1,2-a] quinoxalin-4-amine] showed a fold induction at 0.1 µM of 38.4. Work on `Fc1cc(Cl)cc2nc(Nc3ccc4c(c3)OC(F)(F)O4)c3nccn3c12` [Compound B87, 7-chloro-9-fluoro-N-(2,2-difluorobenzo[d] [1,3]dihydroxy-5-yl)imidazo[1,2-a] quinoxalin-4-amine] yielded a fold induction at 0.1 µM of 15.8. `Cn1c(=O)c(Nc2ccc3c(c2)OC(F)(F)O3)nc2c(Cl)cccc21` [Compound 12] was tested, and the fold induction at 0.1 µM was 22. Compound `Fc1cc(F)c2c(c1)nc(Nc1ccc(OC(F)(F)F)cc1)c1nccn12` [Compound B30, 7,9-difluoro-N-(4-(trifluoromethoxy)phenyl)imidazolo [1,2-a]quinoxalin-4-amine] has a fold induction at 0.1 µM of 22.5. `Fc1cc(NC2=Nc3cc(Cl)ccc3N3CCN=C23)ccc1OC(F)(F)F` [Compound B149, 7-chloro-N-(3-fluoro-4-(trifluoromethoxy)phenyl)-1,2-dihydroimidazo[1,2-a] quinoxalin-4-amine] showed a fold induction at 0.1 µM of 34.7. With `FC(F)(F)Oc1ccc(NC2=Nc3c(Cl)cc(Cl)cc3N3CCN=C23)cc1` [Compound 85] the fold induction at 0.1 µM was 10.4. `Fc1cc(Nc2nc3cc(Cl)cc(F)c3n3ccnc23)ccc1OC(F)(F)F` [Compound B88, 7-chloro-9-fluoro-N-(3-fluoro-4-(trifluoromethoxy)phenyl) imidazolo[1,2-a] quinoxalin-4-amine] gave a fold induction at 0.1 µM of 20.1. In the case of `Fc1cccc2c1N=C(Nc1ccc(C(F)(F)F)cc1)C1=NCCN12` [Compound 74], the fold induction at 0.1 µM is reported as 31.6. `FC(F)(F)Oc1ccc(Nc2nc3ccc(Br)cc3n3ccnc23)cc1` [Compound B6, 8-bromo-N-(4-(trifluoromethoxy)phenyl)imidazolo [1,2-a]quinoxalin-4-amine] showed a fold induction at 0.1 µM of 22. In the case of `Fc1cc(Cl)cc2nc(Nc3ccc(OC(F)(F)F)cc3)c3nccn3c12` [Compound B31, 7-chloro-9-fluoro-N-(4-(trifluoromethoxy)phenyl)imidazolo [1,2-a]quinoxalin-4-amine], the fold induction at 0.1 µM is reported as 24.4. In the case of `FC(F)(F)c1ccc(NC2=Nc3cccc(Cl)c3N3CCN=C23)cc1Cl` [Compound B123, 9-chloro-N-(3-chloro-4-(trifluoromethyl)phenyl)-1,2-dihydroimidazo[1,2-a] quinoxalin-4-amine], the fold induction at 0.1 µM is reported as 24.3. Work on `Fc1cccc2c1nc(Nc1ccc(C(F)(F)F)cc1)c1nccn12` [Compound 45] yielded a fold induction at 0.1 µM of 17.9. In the case of `FC(F)(F)Oc1ccc(Nc2nc3ccc(Cl)c(Cl)c3n3ccnc23)cc1` [Compound B16, 8,9-dichloro-N-(4-(trifluoromethoxy)phenyl)imidazolo [1,2-a]quinoxalin-4-amine], the fold induction at 0.1 µM is reported as 33.4. In the case of `FC(F)(F)c1ccc(Nc2nc3ccc(Cl)cc3n3ccnc23)cc1Cl` [Compound B105, 8-chloro-N-(3-chloro-4-(trifluoromethyl)phenyl) imidazolo[1,2-a] quinoxalin-4-amine], the fold induction at 0.1 µM is reported as 27.8. `Cn1c(=O)c(Nc2ccc3c(c2)OC(F)(F)O3)nc2c(F)cc(Cl)cc21` [Compound 14] gave a fold induction at 0.1 µM of 24.7. With `Fc1cc(NC2=Nc3cc(Cl)cc(F)c3N3CCN=C23)ccc1C(F)(F)F` [Compound B134, 7-chloro-9-fluoro-N-(3-fluoro-4-(trifluoromethyl)phenyl)-1,2-dihydroimidazo[1,2-a] quinoxalin-4-amine] the fold induction at 0.1 µM was 27.5. Compound `Cn1c(=O)c(Nc2ccc(OC(F)(F)F)cc2)nc2c(F)cc(Cl)cc21` [Compound 13] has a fold induction at 0.1 µM of 20.9. For `Fc1ccc2c(c1)nc(Nc1ccc(OC(F)(F)F)cc1)c1nccn12` [Compound B8, 7-fluoro-N-(4-(trifluoromethoxy)phenyl)imidazolo [1,2-a]quinoxalin-4-amine], the fold induction at 0.1 µM was 33.5. Compound `FC(F)(F)c1ccc(Nc2nc3c(Cl)cccc3n3ccnc23)cc1Cl` [Compound 29] has a fold induction at 0.1 µM of 9.32. `Fc1ccc2nc(Nc3ccc(OC(F)(F)F)cc3)c3nccn3c2c1` [Compound B5, 8-fluoro-N-(4-(trifluoromethoxy)phenyl)imidazolo [1,2-a]quinoxalin-4-amine] gave a fold induction at 0.1 µM of 31.3. Compound `Fc1cc(Nc2nc3c(F)cc(Cl)cc3n3ccnc23)ccc1OC(F)(F)F` [Compound 56] has a fold induction at 0.1 µM of 17.2. For `FC(F)(F)Oc1ccc(Nc2nc3cc(Cl)cc(Cl)c3n3ccnc23)cc1` [Compound B21, 7,9-dichloro-N-(4-(trifluoromethoxy)phenyl)imidazolo [1,2-a]quinoxalin-4-amine], the fold induction at 0.1 µM was 35.2. Compound `Fc1cc(Cl)cc2nc(Nc3ccc(C(F)(F)F)cc3)c3nccn3c12` [Compound B90, 7-chloro-9-fluoro-N-(4-(trifluoromethyl)phenyl) imidazolo[1,2-a] quinoxalin-4-amine] has a fold induction at 0.1 µM of 24.9. Work on `FC(F)(F)Oc1ccc(NC2=Nc3cc(Cl)ccc3N3CCN=C23)cc1Cl` [Compound B150, 7-chloro-N-(3-chloro-4-(trifluoromethoxy)phenyl)-1,2-dihydroimidazo[1,2-a] quinoxalin-4-amine] yielded a fold induction at 0.1 µM of 26.4. `Fc1cccc2c1nc(Nc1ccc3c(c1)OC(F)(F)O3)c1nccn12` [Compound 42] was tested, and the fold induction at 0.1 µM was 14.1. `Fc1cc(NC2=Nc3cccc(Cl)c3N3CCN=C23)ccc1C(F)(F)F` [Compound B122, 9-chloro-N-(3-fluoro-4-(trifluoromethyl)phenyl)-1,2-dihydroimidazo[1,2-a] quinoxalin-4-amine] gave a fold induction at 0.1 µM of 27.3. Work on `Fc1cc(NC2=Nc3cc(Cl)cc(Cl)c3N3CCN=C23)ccc1OC(F)(F)F` [Compound B137, 7,9-dichloro-N-(3-fluoro-4-(trifluoromethoxy)phenyl)-1,2-dihydroimidazo[1,2-a] quinoxalin-4-amine] yielded a fold induction at 0.1 µM of 31.1. Work on `FC(F)(F)Sc1ccc(Nc2nc3cccc(Cl)c3n3ccnc23)cc1` [Compound B50, 9-chloro-N-(4-(trifluoromethylthio)phenyl)imidazolo [1,2-a]quinoxalin-4-amine] yielded a fold induction at 0.1 µM of 21.3. `FC(F)(F)c1ccc(NC2=Nc3c(Br)cccc3N3CCN=C23)cc1` [Compound 80] gave a fold induction at 0.1 µM of 19.8. In the case of `Fc1cc(NC2=Nc3ccc(Cl)cc3N3CCN=C23)ccc1OC(F)(F)F` [Compound B143, 8-chloro-N-(3-fluoro-4-(trifluoromethoxy)phenyl)-1,2-dihydroimidazo[1,2-a] quinoxalin-4-amine], the fold induction at 0.1 µM is reported as 28.4. `FC(F)(F)Oc1ccc(Nc2nc3cc(Br)cc(Cl)c3n3ccnc23)cc1` [Compound B23, 7-bromo-9-Chloro-N-(4-(trifluoromethoxy)phenyl)imidazolo [1,2-a]quinoxalin-4-amine] gave a fold induction at 0.1 µM of 25.2.
